Three compounds from PMC8146912, “Phenolic Compounds of Reynoutria sp. as Modulators of Oral Cavity Lactoperoxidase System” (Antioxidants, 2021) can be followed below.

What all share (assay type): biochemical
The target of assay [1] is T1, Lactoperoxidase (LPO) (Bos taurus, UniProt P80025).
T1 construct: native enzyme from bovine milk, commercial lyophilisate (Sigma-Aldrich), heme-containing, mature secreted form
As to the kind of experiment: stopped-flow spectrophotometry, reduction of LPO Compound II to native LPO. The settings on record: 1 µM LPO, 0.75 µM H2O2, 20 mM phosphate pH 6, 15 °C; one-electron donor in peroxidation cycle.

Assay [2] has as its target T1, Lactoperoxidase (LPO). Description: Ellman's reagent assay of OSCN- formation, […] nm. For orientation: DTNB colorimetry detects thiols as they appear.
Assay [3] has as its target T1, Lactoperoxidase (LPO). Description: Ellman's reagent assay of OSCN- formation, […] nm. The source holds these as a separate data set.

In the case of `Cc1cc(O)c2c(c1)C(=O)c1cc(O)cc(O)c1C2=O` [c, Emodin], at Lactoperoxidase (LPO) [1], the “k (Compound II -> Native LPO)” value is “this compound may be a substrate for LPO Compound I and Compound II”.
As usually defined, the EC50 is the concentration that produces a half-maximal response. Low readings indicate higher potency in that assay, high ones lower potency in that assay. The term IC50 denotes the concentration that gives 50% inhibition. At Lactoperoxidase (LPO) [2], `Oc1ccc(/C=C/c2cc(O)cc(O)c2)cc1` [b, Resveratrol] showed an EC50 of 9 ± 2 nM. On Lactoperoxidase (LPO) [3], this compound had an IC50 of 0.423 ± 0.018 µM.
For `Oc1cc(O)c2c(c1)O[C@H](c1ccc(O)c(O)c1)[C@H](O)C2` [a, (-)-Epicatechin] the same measures were 1310 ± 239 nM and 74.1 ± 3.62 µM.
